pIC50: −log10 of the molar value.
How the values were obtained:
[1] = Mouse liver microsome assay (metabolic stability); assay type: in vitro ADME; conditions: mouse liver microsomes; for half-life at 2 µM: in vitro half-life; for microsomal CLint at 2 µM: in vitro intrinsic clearance, read-out: Relative Clint
Description: Example 6. Mouse Liver Microsome Assay
Metabolic stability of several compounds in mouse liver microsomes was tested. Briefly, a master solution was prepared according to Table 31.
Two separate experiments were performed: an experiment with cofactors and an experiment without cofactors. In the experiment with cofactors 40 μL of 10 mM NADPH and 40 μL of 20 mM UDPGA were added to the incubations. The final concentrations of microsomes, NADPH and UDPGA were 0.5 mg/mL, 1 mM and 2 mM, respectively. In the experiment without cofactors 10 μL of 20 mg/mL liver microsomes and 80 μL of ultra-pure H2O were added to the incubations. The final concentration of microsomes was 0.5 mg/mL. The mixture was pre-warmed at 37° C. for 5 minutes.
The reaction was started with the addition of 4 μL of 200 μM control compound or test compound solutions. Verapamil was used as positive control in this study. The final concentration of test compound was 2 μM and the final concentration of control compound was 1 μM. The incubation solution was incubated in water bath at 37° C.
Aliquots of 50 μL were taken from the reaction solution at 0.5, 5, 15, 30, 45 and 60 minutes. The reaction was stopped by the addition of five volumes of cold acetonitrile with IS (100 nM alprazolam, 200 nM caffeine and 100 nM tolbutamide). Samples were centrifuged at 3,220 g for 40 minutes. Aliquot of 100 μL of the supernatant was mixed with 100 μL of ultra-pure H2O and then subject to LC-MS/MS analysis.
All calculations were carried out using Microsoft Excel. Peak areas were determined from extracted ion chromatograms. The slope value, k, was determined by linear regression of the natural logarithm of the remaining percentage of the parent drug versus incubation time curve. The in vitro half-life (in vitro t½) was determined from the slope value:
Conversion of the in vitro t1/2(min) into the in vitro intrinsic clearance (in vitro CLint, in μL/min/mg protein) was done using the following equation (mean of duplicate determinations): […]

[2] = system: HCT116; experiment: HCT116 formate rescue assay (with sodium formate 1 mM); assay type: cell-based; conditions: HCT116 growth
Description: (§1) Example 5. HCT116 Growth Inhibition and Formate Rescue Assays
(§2) 3,000 Cells were plated in each well of a 96-well plate with 80 μL of DMEM media supplemented with 10% dFBS, and incubated for 24 hours. Drugs with or without sodium formate (1 mM) were then added to each well to a final volume of 100 μL. Cell growth was measured as fluorescence intensity by resazurin after four days. In short, resazurin was added to each well to a final concentration of 10 μg·mL^−1. After incubation for one hour, fluorescence was measured by a Synergy HT plate reader (BioTek Instruments).

[3] = system: HCT116; experiment: HCT116 growth inhibition assay; assay type: cell-based; conditions: without formate
Description: as §1, §2

Row | SMILES | half-life at 2 µM [1] | microsomal CLint at 2 µM [1] | pIC50 ([2]; Homo sapiens, HCT-116, 96 h) | IC50 [3] | pIC50 [2]
1 | Cc1n[nH]c2c1C(c1cc(C#C[C@@H]3C[C@H]3CO)cc(CO)c1)(C(C)C)C(C#N)=C(N)O2 (some centres unmarked) [KDG-0136] | 10 to 20 min | ≤ 70 µL/min/mg | < 5.30 | C″ | 
2 | Cc1n[nH]c2c1C(c1cc(C#C[C@H]3C[C@@H](C(C)(C)O)C3)cc(C(C)(C)O)c1)(C(C)C)C(C#N)=C(N)O2 (some centres unmarked) [KDG-0261-100] | < 5 min | > 250 µL/min/mg | < 5.30 | C″ | 
3 | Cc1n[nH]c2c1C(c1cc(C#C[C@H]3C[C@H](COC(N)=O)C3)cc(C(C)(C)O)c1)(C(C)C)C(C#N)=C(N)O2 (some centres unmarked) [KDG-0262] | < 5 min |  |  | C″ | 
4 | Cc1n[nH]c2c1C(c1cc(C#C[C@H]3C[C@H](C(=O)N(C)C)C3)cc(CO)c1)(C(C)C)C(C#N)=C(N)O2 (some centres unmarked) [KDG-0265] | 5 to 10 min |  |  | C″ | 
5 | Cc1n[nH]c2c1C(c1cc(C#C[C@H]3CC[C@@](C)(O)CC3)cc(CO)c1)(C(C)C)C(C#N)=C(N)O2 (some centres unmarked) [KDG-0270] | < 5 min |  |  | B″ | 
6 | Cc1n[nH]c2c1C(c1cc(C#CC3CCOCC3)cc(CO)c1)(C(C)C)C(C#N)=C(N)O2 (centres unmarked) [KDG-0273] | < 5 min |  |  | B″ | 
7 | Cc1n[nH]c2c1C(c1cc(C#CC3CCCN3C(=O)OC(C)(C)C)cc(CO)c1)(C(C)C)C(C#N)=C(N)O2 (centres unmarked) [KDG-0280] | < 5 min | > 250 µL/min/mg | < 5.30 | B″ | 
8 | Cc1n[nH]c2c1C(c1cc(C#CC3CCN(C(=O)OC(C)(C)C)CC3)cc(CO)c1)(C(C)C)C(C#N)=C(N)O2 (centres unmarked) [KDG-0289] | 5 to 10 min | 100 to 250 µL/min/mg | > 7.00 | A″ | 
9 | Cc1n[nH]c2c1C(c1cc(C#CC3(C)CCN(C(=O)OC(C)(C)C)CC3)cc(CO)c1)(C(C)C)C(C#N)=C(N)O2 (centres unmarked) [KDG-0296] | 5 to 10 min | 100 to 250 µL/min/mg | > 7.00 | C″ | 
10 | Cc1n[nH]c2c1C(c1cc(C#CC3(F)CCN(C(=O)OC(C)(C)C)CC3)cc(CO)c1)(C(C)C)C(C#N)=C(N)O2 (centres unmarked) [KDG-0297] | 5 to 10 min | 100 to 250 µL/min/mg | < 5.30 | B″ | 
11 | Cc1n[nH]c2c1[C@](c1cc(C#CC3(C(F)(F)F)CN(C(=O)OC(C)(C)C)C3)cc(CO)c1)(C(C)C)C(C#N)=C(N)O2 [KDG-0301] | ≥ 20 min | ≤ 70 µL/min/mg | < 5.30 | A″ | 
12 | COC(=O)N1CC(F)(C#Cc2cc(CO)cc([C@@]3(C(C)C)C(C#N)=C(N)Oc4[nH]nc(C)c43)c2)C1 [KDG-0313] | ≥ 20 min | ≤ 70 µL/min/mg | < 5.30 | B″ | 
13 | Cc1n[nH]c2c1C(c1cc(C#C[C@H]3CC[C@@H](NC(=O)OC(C)(C)C)CC3)cc(CO)c1)(C(C)C)C(C#N)=C(N)O2 (some centres unmarked) [KDG-0321] | < 5 min | > 250 µL/min/mg | > 7.00 | A″ | 
14 | Cc1n[nH]c2c1C(c1cc(C#CC3CN(C(=O)OC(C)(C)C)C3)cc(CF)c1)(C(C)C)C(C#N)=C(N)O2 (centres unmarked) [KDG-0345] | 5 to 10 min | 100 to 250 µL/min/mg |  | A″ | 
15 | Cc1n[nH]c2c1C(c1cc(C#C[C@H]3C[C@@H](NC(=O)OC(C)(C)C)C3)cc(CO)c1)(C(C)C)C(C#N)=C(N)O2 (stereo partly drawn) [KDG-0388-0pk2, tert-butyl N-[(1s,3s)-3-(2-[3-[(4R)-6-amino-5-cyano-4-isopropyl-3-methyl-1H-pyrano[2,3-c]pyrazol-4-yl]-5-(hydroxymethyl)phenyl]ethynyl)cyclobutyl]carbamate] |  |  |  | A″ | < 5.30
16 | Cc1n[nH]c2c1[C@](c1cc(C#C[C@H]3C[C@@H](NC(=O)OC(C)(C)C)C3)cc(CO)c1)(C(C)C)C(C#N)=C(N)O2 [KDG-0388-Opk1, tert-butyl N-[(1s,3s)-3-(2-[3-[(4S)-6-amino-5-cyano-4-isopropyl-3-methyl-1H-pyrano[2,3-c]pyrazol-4-yl]-5-(hydroxymethyl)phenyl]ethynyl)cyclobutyl]carbamate] |  |  | > 7.00 | D″ | 
17 | Cc1n[nH]c2c1C(c1cc(C#CC3CN(C(=O)NC(C)(C)C)C3)cc(CO)c1)(C(C)C)C(C#N)=C(N)O2 (centres unmarked) [KDG-0412] | 10 to 20 min | 70 to 100 µL/min/mg | < 5.30 | D″ | 
18 | [2H]C([2H])(O)c1cc(C#CC2CN(C(=O)OC(C)(C)C)C2)cc(C2(C(C)C)C(C#N)=C(N)Oc3[nH]nc(C)c32)c1 (centres unmarked) [KDG-0413] | 10 to 20 min | 70 to 100 µL/min/mg | > 7.00 | B″ | 
19 | Cc1c[nH]c2c1C(c1cc(CO)cc(-c3ccc(C4CN(C(=O)OC(C)(C)C)C4)cc3)c1)(C(C)C)C(C#N)=C(N)O2 (centres unmarked) [KDG-0453] | 10 to 20 min | 70 to 100 µL/min/mg | > 7.00 | A″ | 
20 | Cc1nnc(N2CC(C#Cc3cc(CO)cc(C4(C(C)C)C(C#N)=C(N)Oc5[nH]nc(C)c54)c3)C2)o1 (centres unmarked) [KDG-0472] | ≥ 20 min | ≤ 70 µL/min/mg | > 7.00 | C″ | 
21 | Cc1nnc(N2CCC(C#Cc3cc(CO)cc(C4(C(C)C)C(C#N)=C(N)Oc5[nH]nc(C)c54)c3)CC2)o1 (centres unmarked) [KDG-0478] | 5 to 10 min | 70 to 100 µL/min/mg | < 5.30 | C″ | 
22 | Cc1n[nH]c2c1C(c1cc(C#C[C@@H]3CC[C@@H]3CNC(=O)OC(C)(C)C)cc(CO)c1)(C(C)C)C(C#N)=C(N)O2 (some centres unmarked) [KDG-0490] | < 5 min |  |  | B″ | 
23 | Cc1n[nH]c2c1C(c1cc(C#CC34CC(NC(=O)OC(C)(C)C)(C3)C4)cc(CO)c1)(C(C)C)C(C#N)=C(N)O2 (centres unmarked) [KDG-0502, tert-butyl N-[3-[2-(3-[6-amino-5-cyano-4-isopropyl-3-methyl-1H-pyrano[2,3-c]pyrazol-4-yl]-5-(hydroxymethyl)phenyl)ethynyl]bicyclo[1.1.1]pentan-1-yl]carbamate] | ≥ 20 min | ≤ 70 µL/min/mg | > 7.00 | B″ | 
24 | Cc1n[nH]c2c1C(c1cc(C#C[C@H]3CC[C@@H](NC(=O)OC(C)(C)C)C3)cc(CO)c1)(C(C)C)C(C#N)=C(N)O2 (some centres unmarked) [KDG-0505] | < 5 min |  |  | A″ | 
25 | Cc1n[nH]c2c1C(c1cc(C#C[C@H]3CC[C@H](NC(=O)OC(C)(C)C)C3)cc(CO)c1)(C(C)C)C(C#N)=C(N)O2 (some centres unmarked) [KDG-0506] | 5 to 10 min |  |  | B″ | 
26 | Cc1n[nH]c2c1C(c1cc(C#N)cc(C#CC3CN(C(=O)OC(C)(C)C)C3)c1)(C(C)C)C(C#N)=C(N)O2 (centres unmarked) [KDG-0543] | 10 to 20 min |  |  | B″ | 

From US20230382920A1, “SHMT Inhibitors” (The Trustees of Princeton University, priority 2020, published 2023)
